Assay results taken from PubChem BioAssay (NCI).
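Growth conditions: 96-well plates. Treatment: test compound, 48 hours, 5 concentrations. Analysis: linear interpolation between bracketing concentrations; unreached endpoints set to highest concentration. The concentration for 50% growth inhibition is given as GI50. TGI: concentration producing complete growth inhibition.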

Legend:
Assay in all cases: NCI anticancer screen, dose series, 48 h
SK-MEL-2 melanoma = test system: SK-MEL-2 melanoma
K-562 leukemia = test system: K-562 leukemia
CAKI-1 renal = test system: CAKI-1 renal
SN12C renal = test system: SN12C renal
HCT-15 colon = test system: HCT-15 colon
U251 CNS = test system: U251 CNS
NCI-H226 lung = test system: NCI-H226 lung
UACC-62 melanoma = test system: UACC-62 melanoma
KM12 colon = test system: KM12 colon
UACC-257 melanoma = test system: UACC-257 melanoma
MDA-MB-231 breast = test system: MDA-MB-231 breast
HOP-62 NSCLC = test system: HOP-62 NSCLC
LOX IMVI melanoma = test system: LOX IMVI melanoma
HCC-2998 colon = test system: HCC-2998 colon
SF-539 CNS = test system: SF-539 CNS
PC-3 prostate = test system: PC-3 prostate
SW-620 colon = test system: SW-620 colon
OVCAR-4 ovarian = test system: OVCAR-4 ovarian
NCI-H23 lung = test system: NCI-H23 lung
UO-31 renal = test system: UO-31 renal
TK-10 renal = test system: TK-10 renal
A498 renal = test system: A498 renal
SNB-19 CNS = test system: SNB-19 CNS
IGROV1 ovarian = test system: IGROV1 ovarian
HCT-116 colon = test system: HCT-116 colon
MCF7 breast = test system: MCF7 breast
OVCAR-3 ovarian = test system: OVCAR-3 ovarian
SF-268 CNS = test system: SF-268 CNS
DU-145 prostate = test system: DU-145 prostate
T-47D breast = test system: T-47D breast
HL-60(TB) leukemia = test system: HL-60(TB) leukemia
MOLT-4 leukemia = test system: MOLT-4 leukemia
HS 578T breast = test system: HS 578T breast
M14 melanoma = test system: M14 melanoma
SK-OV-3 ovarian = test system: SK-OV-3 ovarian
OVCAR-5 ovarian = test system: OVCAR-5 ovarian
ACHN renal = test system: ACHN renal
COLO 205 colon = test system: COLO 205 colon
MALME-3M melanoma = test system: MALME-3M melanoma
OVCAR-8 ovarian = test system: OVCAR-8 ovarian
A549 NSCLC = test system: A549 NSCLC
SR leukemia = test system: SR leukemia
NCI-H460 lung = test system: NCI-H460 lung
HOP-92 NSCLC = test system: HOP-92 NSCLC
EKVX NSCLC = test system: EKVX NSCLC
HT29 colon = test system: HT29 colon
NCI/ADR-RES ovarian = test system: NCI/ADR-RES ovarian
SK-MEL-28 melanoma = test system: SK-MEL-28 melanoma
CCRF-CEM leukemia = test system: CCRF-CEM leukemia
SNB-75 CNS = test system: SNB-75 CNS
RPMI-8226 leukemia = test system: RPMI-8226 leukemia
BT-549 breast = test system: BT-549 breast
786-0 renal = test system: 786-0 renal
SK-MEL-5 melanoma = test system: SK-MEL-5 melanoma
SF-295 CNS = test system: SF-295 CNS
MDA-MB-435 = test system: MDA-MB-435
RXF 393 renal = test system: RXF 393 renal

## O=C(Nc1ccccc1)Nc1nc2ccc([N+](=O)[O-])cc2s1
SK-MEL-2 melanoma
  GI50: 1690 nM
  TGI: 5150 nM
K-562 leukemia
  GI50: 1470 nM
  TGI: 10800 nM
CAKI-1 renal
  GI50: 1620 nM
  TGI: 7910 nM
SN12C renal
  GI50: 1580 nM
  TGI: 6790 nM
HCT-15 colon
  GI50: 1650 nM
  TGI: 10500 nM
U251 CNS
  GI50: 1970 nM
  TGI: 12900 nM
NCI-H226 lung
  GI50: 1370 nM
  TGI: 4300 nM
UACC-62 melanoma
  GI50: 860 nM
  TGI: 8130 nM
KM12 colon
  GI50: 1770 nM
  TGI: 10600 nM
UACC-257 melanoma
  GI50: 1490 nM
  TGI: 7700 nM
MDA-MB-231 breast
  GI50: 1820 nM
  TGI: 4560 nM
HOP-62 NSCLC
  GI50: 2930 nM
  TGI: 11500 nM
LOX IMVI melanoma
  GI50: 1220 nM
  TGI: 3680 nM
HCC-2998 colon
  GI50: 1380 nM
  TGI: 9090 nM
SF-539 CNS
  GI50: 2120 nM
  TGI: 10400 nM
PC-3 prostate
  GI50: 1690 nM
  TGI: 9890 nM
SW-620 colon
  GI50: 2970 nM
  TGI: 12700 nM
OVCAR-4 ovarian
  GI50: 1310 nM
  TGI: 12400 nM
NCI-H23 lung
  GI50: 649 nM
  TGI: 3570 nM
UO-31 renal
  GI50: 1560 nM
  TGI: 11500 nM
TK-10 renal
  GI50: 2830 nM
  TGI: 10700 nM
A498 renal
  GI50: 254 nM
  TGI: 1710 nM
SNB-19 CNS
  GI50: 1740 nM
  TGI: 12900 nM
IGROV1 ovarian
  GI50: 2490 nM
  TGI: 14900 nM
HCT-116 colon
  GI50: 2220 nM
  TGI: 10100 nM
MCF7 breast
  GI50: 1420 nM
  TGI: 10800 nM
OVCAR-3 ovarian
  GI50: 1910 nM
  TGI: 11600 nM
SF-268 CNS
  GI50: 2650 nM
  TGI: 13300 nM
DU-145 prostate
  GI50: 3330 nM
  TGI: 16700 nM
T-47D breast
  GI50: 533 nM
  TGI: 9770 nM
HL-60(TB) leukemia
  GI50: 1460 nM
  TGI: 3570 nM
MOLT-4 leukemia
  GI50: 1960 nM
  TGI: 7140 nM
HS 578T breast
  GI50: 2720 nM
  TGI: 12400 nM
M14 melanoma
  GI50: 2640 nM
  TGI: 8480 nM
SK-OV-3 ovarian
  GI50: 2330 nM
  TGI: 9580 nM
OVCAR-5 ovarian
  GI50: 4330 nM
  TGI: 17400 nM
ACHN renal
  GI50: 2040 nM
  TGI: 10200 nM
COLO 205 colon
  GI50: 2050 nM
  TGI: 4380 nM
MALME-3M melanoma
  GI50: 751 nM
  TGI: 7710 nM
OVCAR-8 ovarian
  GI50: 2800 nM
  TGI: 14500 nM
A549 NSCLC
  GI50: 2530 nM
  TGI: 14400 nM
SR leukemia
  GI50: 746 nM
  TGI: 4170 nM
NCI-H460 lung
  GI50: 2060 nM
  TGI: 10500 nM
HOP-92 NSCLC
  GI50: 324 nM
  TGI: 2610 nM
EKVX NSCLC
  GI50: 1950 nM
  TGI: 11900 nM
HT29 colon
  GI50: 3460 nM
  TGI: 12100 nM
NCI/ADR-RES ovarian
  GI50: 1790 nM
  TGI: 8310 nM
SK-MEL-28 melanoma
  GI50: 2450 nM
  TGI: 12100 nM
CCRF-CEM leukemia
  GI50: 1290 nM
  TGI: 13100 nM
SNB-75 CNS
  GI50: 1870 nM
  TGI: 5740 nM
RPMI-8226 leukemia
  GI50: 690 nM
  TGI: 3470 nM
BT-549 breast
  GI50: 2020 nM
  TGI: 6500 nM
786-0 renal
  GI50: 2410 nM
  TGI: 9940 nM
SK-MEL-5 melanoma
  GI50: 471 nM
  TGI: 1750 nM
SF-295 CNS
  GI50: 1230 nM
  TGI: 3110 nM
MDA-MB-435
  GI50: 2160 nM
  TGI: 9740 nM
RXF 393 renal
  GI50: 548 nM
  TGI: 3020 nM
